In patent US9611256B2, “Alkyne-, azide- and triazole-containing flavonoids as modulators for multidrug resistance in cancers” (The Hong Kong Polytechnic University, priority 2012, dated 2017):
Like-named read-outs stand apart in the source and are kept apart here.

Legend:
in vitro = conditions: mouse
MRP1 [1] = target: T1, MRP1 (Homo sapiens, UniProt P33527); experiment: cell-based
[2] = test system: P-gp, MRP1 and BCRP transporters; experiment: Selectivity for ABC transporters, determined from % of reversion (Tables 1 and 2); format: cell-based, human; conditions: determined from % of reversion in Table 1 (>80% strongly, 79-50% moderately selective)
Description: Generally, the triazole dimers library can be divided into mono-selective, dual-selective and multi-selective ABC transporter modulators. Table 2 summarizes the selectivity of different active triazole dimers and some monomeric azides for the ABC transporters. […] From the study, it seems that the simple monomeric azides could be a highly BCRP-selective inhibitor. […] It is possible that differently selective (mono-, dual- and multi-) inhibitors of drug transporters could be potentially useful tools for investigation of complicated drug-resistance phenotypes and eventually, for treatment of drug-resistant cancers caused by overexpression of ABC transporters.
The selectivity of active triazole compounds for various ABC transporters was determined from the Table 1. It would be considered as strongly selective if it causes >80% of reversion. It would be considered as moderately selective if it results in 79-50% of reversion. Overall, the active triazole compounds can be divided into mono-, dual- and multi-selective for P-gp, MRP1 and BCRP transporters.

MRP1 [3] = target: T1, MRP1; experiment: Reversal of MRP1-mediated DOX resistance in 2008/MRP1 cells (cell proliferation assay); conditions: for DOX resistance of 2008/MRP1 Therapeutic index: (IC50 towards L929 or Raw264.7)/(EC50 for reversing drug resistance)
BCRP [4] = target: T2, BCRP (Homo sapiens, UniProt Q9UNQ0); experiment: Reversal of BCRP-mediated topotecan resistance in MCF7-MX100 cells (cell proliferation assay); conditions: for Topotecan resistance of MCF7-MX100 Therapeutic index: (IC50 towards L929 or Raw264.7)/(EC50 for reversing drug resistance)
T2 sequence (Q9UNQ0 1-655): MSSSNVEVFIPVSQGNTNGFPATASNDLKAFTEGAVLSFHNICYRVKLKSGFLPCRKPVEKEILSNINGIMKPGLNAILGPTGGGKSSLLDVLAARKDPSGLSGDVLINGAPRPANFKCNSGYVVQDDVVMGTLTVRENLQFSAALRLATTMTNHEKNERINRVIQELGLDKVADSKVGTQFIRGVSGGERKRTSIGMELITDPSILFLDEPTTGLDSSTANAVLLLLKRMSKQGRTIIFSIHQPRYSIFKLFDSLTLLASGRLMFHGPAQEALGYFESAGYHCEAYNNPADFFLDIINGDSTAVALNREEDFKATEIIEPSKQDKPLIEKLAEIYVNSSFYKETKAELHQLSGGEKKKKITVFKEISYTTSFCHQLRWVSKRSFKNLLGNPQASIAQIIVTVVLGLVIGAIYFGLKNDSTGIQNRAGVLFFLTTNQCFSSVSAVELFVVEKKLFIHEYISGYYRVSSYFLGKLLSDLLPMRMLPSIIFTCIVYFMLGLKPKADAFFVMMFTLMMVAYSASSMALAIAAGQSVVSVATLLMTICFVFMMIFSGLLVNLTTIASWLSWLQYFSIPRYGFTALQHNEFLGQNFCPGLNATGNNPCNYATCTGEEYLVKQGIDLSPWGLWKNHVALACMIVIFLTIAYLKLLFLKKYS

MRP1 [5] = target: T1, MRP1; experiment: cell-based; remark: listed apart in the source
MRP1 [6] = target: T1, MRP1; experiment: Reversal of MRP1-mediated vincristine resistance in 2008/MRP1 cells (cell proliferation assay); conditions: (IC50 towards L929 or Raw264.7)/(EC50 for reversing drug resistance)
BCRP [7] = target: T2, BCRP; experiment: cell-based

T1 sequence (P33527 whole entry): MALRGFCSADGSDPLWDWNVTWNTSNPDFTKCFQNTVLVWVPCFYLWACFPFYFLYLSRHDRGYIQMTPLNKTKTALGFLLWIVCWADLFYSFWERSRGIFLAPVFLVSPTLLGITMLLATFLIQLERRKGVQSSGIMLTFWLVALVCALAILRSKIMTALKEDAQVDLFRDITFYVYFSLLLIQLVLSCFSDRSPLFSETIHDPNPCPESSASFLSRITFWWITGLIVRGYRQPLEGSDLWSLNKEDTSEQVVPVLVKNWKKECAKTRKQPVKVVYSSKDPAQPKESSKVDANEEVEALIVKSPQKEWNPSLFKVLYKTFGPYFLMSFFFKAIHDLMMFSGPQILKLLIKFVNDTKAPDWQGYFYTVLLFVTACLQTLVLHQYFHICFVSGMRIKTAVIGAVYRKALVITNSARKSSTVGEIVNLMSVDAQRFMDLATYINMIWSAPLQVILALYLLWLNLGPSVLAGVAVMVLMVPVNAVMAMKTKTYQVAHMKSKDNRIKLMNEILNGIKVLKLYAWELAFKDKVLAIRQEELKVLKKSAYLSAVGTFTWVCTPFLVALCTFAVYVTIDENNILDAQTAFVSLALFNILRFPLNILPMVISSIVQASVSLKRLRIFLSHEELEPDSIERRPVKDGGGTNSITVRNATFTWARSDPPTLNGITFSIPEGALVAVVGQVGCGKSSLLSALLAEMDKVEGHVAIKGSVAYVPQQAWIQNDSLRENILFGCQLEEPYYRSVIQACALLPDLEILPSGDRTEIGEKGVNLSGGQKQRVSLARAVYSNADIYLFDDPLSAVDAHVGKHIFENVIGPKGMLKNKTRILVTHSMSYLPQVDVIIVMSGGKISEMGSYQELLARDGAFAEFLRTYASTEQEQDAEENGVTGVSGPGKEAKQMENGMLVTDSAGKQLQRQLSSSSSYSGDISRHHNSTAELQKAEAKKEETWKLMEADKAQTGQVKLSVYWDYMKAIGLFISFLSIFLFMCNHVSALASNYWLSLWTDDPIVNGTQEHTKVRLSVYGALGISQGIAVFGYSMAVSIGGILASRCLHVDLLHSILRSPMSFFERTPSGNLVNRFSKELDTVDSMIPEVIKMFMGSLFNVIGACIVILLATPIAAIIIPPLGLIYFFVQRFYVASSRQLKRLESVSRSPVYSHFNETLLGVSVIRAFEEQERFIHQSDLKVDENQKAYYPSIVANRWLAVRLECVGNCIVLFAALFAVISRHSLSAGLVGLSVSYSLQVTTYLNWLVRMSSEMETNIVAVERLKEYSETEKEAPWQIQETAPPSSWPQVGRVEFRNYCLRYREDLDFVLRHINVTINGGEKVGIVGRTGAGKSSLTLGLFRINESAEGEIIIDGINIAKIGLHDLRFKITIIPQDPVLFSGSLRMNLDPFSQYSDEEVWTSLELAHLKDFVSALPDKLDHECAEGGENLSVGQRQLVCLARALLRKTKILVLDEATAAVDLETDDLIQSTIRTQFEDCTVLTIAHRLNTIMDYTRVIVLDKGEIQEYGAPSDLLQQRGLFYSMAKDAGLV

IC50 at 5 days (in vitro) | EC50 (MRP1 [1]) | Selectivity for ABC transporters (P-gp, MRP1, BCRP) [2] | EC50 (BCRP [7]) | % of reversion of sensitivity of 2008/MRP1 towards DOX (MRP1 [3]; triazole dimers at 1.0 μM) | Structure (SMILES) | DOX resistance of 2008/MRP1 Therapeutic index (MRP1 [3]) | Topotecan resistance of MCF7-MX100 Therapeutic index (BCRP [4]) | EC50 (MRP1 [5]) | Vincristine resistance of 2008/MRP1 Therapeutic index (MRP1 [6]) | % of reversion of sensitivity of MCF7-MX100 towards topotecan (BCRP [4]; triazole dimers at 1.0 μM)
60200 ± 16300 nM | 128 ± 32.5 nM | – | – | – | O=c1cc(-c2ccc(OCCCc3cn(CCOCCOc4ccc(-c5cc(=O)c6ccccc6o5)cc4)nn3)cc2)oc2ccccc12 [Ac1Az1, 2-(4-(3-(1-(2-(2-(4-(4-Oxo-4H-chromen-2-yl)phenoxy)ethoxy)ethyl)-1H-1,2,3-triazol-4-yl)propoxy)phenyl)-4H-chromen-4-one] | – | – | – | – | –
> 100000 nM | 145 ± 25 nM | – | – | – | O=c1cc(-c2ccc(OCCOCCn3cc(CCCOc4ccc5c(=O)cc(-c6ccccc6)oc5c4)nn3)cc2)oc2ccccc12 [Ac2Az1, 7-(3-(1-(2-(2-(4-(4-Oxo-4H-chromen-2-yl)phenoxy)ethoxy)ethyl)-1H-1,2,3-triazol-4-yl)propoxy)-2-phenyl-4H-chromen-4-one] | – | – | – | – | –
> 100000 nM | 110 ± 15 nM | MRP1- and BCRP-dual selectivity | – | – | COCOc1cc(O)c2c(=O)cc(-c3ccc(OCCCc4cn(CCOCCOc5ccc(-c6cc(=O)c7ccccc7o6)cc5)nn4)cc3)oc2c1 [Ac4(5OH)Az1, 5-Hydroxy-7-(methoxymethoxy)-2-(4-(3-(1-(2-(2-(4-(4-oxo-4H-chromen-2-yl)phenoxy)ethoxy)ethyl)-1H-1,2,3-triazol-4-yl)propoxy)phenyl)-4H-chromen-4-one] | >909.1 | >1960.8 | – | – | –
> 100000 nM | – | MRP1- and BCRP-dual selectivity | – | – | O=c1cc(-c2ccccc2)oc2cc(OCCCCc3cn(CCOCCOCCOc4ccc(-c5cc(=O)c6cc(F)ccc6o5)cc4)nn3)ccc12 [Ac12Az4, 6-Fluoro-2-(4-(2-(2-(2-(4-(4-((4-oxo-2-phenyl-4H-chromen-7-yl)oxy)butyl)-1H-1,2,3-triazol-1-yl)ethoxy)ethoxy)ethoxy)phenyl)-4H-chromen-4-one] | >525.5 | – | – | >736.9 | –
> 100000 nM | – | MRP1- and BCRP-dual selectivity | – | – | O=c1cc(-c2ccccc2)oc2cc(OCCCCc3cn(CCOCCOc4ccc(-c5cc(=O)c6cc(F)ccc6o5)cc4)nn3)ccc12 [Ac12Az7, 6-Fluoro-2-(4-(2-(2-(4-(4-((4-oxo-2-phenyl-4H-chromen-7-yl)oxy)butyl)-1H-1,2,3-triazol-1-yl)ethoxy)ethoxy)phenyl)-4H-chromen-4-one] | >580.4 | – | 93.3 ± 20.5 nM | >1071.8 | –
> 100000 nM | – | MRP1- and BCRP-dual selectivity | ≤ 10 nM | about 55.9% | COC(=O)c1cccc(COc2c(-c3ccc(OCCOCCn4cc(COCCOc5ccc6c(=O)cc(-c7ccccc7)oc6c5)nn4)cc3)oc3ccccc3c2=O)c1 [Ac13Az8, Methyl 3-(((4-oxo-2-(4-(2-(2-(4-((2-((4-oxo-2-phenyl-4H-chromen-7-yl)oxy)ethoxy)methyl)-1H-1,2,3-triazol-1-yl)ethoxy)ethoxy)phenyl)-4H-chromen-3-yl)oxy)methyl)benzoate] | – | >16666.7 | – | – | about 80.0%
> 100000 nM | – | mono-BCRP selectivity | ≤ 10 nM | – | COC(=O)c1cccc(COc2c(-c3ccc(OCCOCCn4cc(CN(Cc5ccccc5)Cc5cn(CCOCCOc6ccc(-c7oc8ccccc8c(=O)c7OCc7cccc(C(=O)OC)c7)cc6)nn5)nn4)cc3)oc3ccccc3c2=O)c1 [Ac15Az8, Dimethyl 3,3′-(((2,2′-((((((4,4′-((benzylazanediyl)bis(methylene))bis(1H-1,2,3-triazole-4,1-diyl))bis(ethane-2,1-diyl))bis(oxy))bis(ethane-2,1-diyl))bis(oxy))bis(4,1-phenylene))bis(4-oxo-4H-chromene-3,2-diyl))bis(oxy))bis(methylene))dibenzoate] | – | >76923.1 | – | – | –
> 100000 nM | – | mono-BCRP selectivity | ≤ 10 nM | – | COC(=O)c1cccc(COc2c(-c3ccc(OCCOCCOCCn4cc(CN(Cc5ccccc5)Cc5cn(CCOCCOCCOc6ccc(-c7oc8ccccc8c(=O)c7OCc7cccc(C(=O)OC)c7)cc6)nn5)nn4)cc3)oc3ccccc3c2=O)c1 [Ac15Az9, Dimethyl 3,3′-(((2,2′-((((((((4,4′-((benzylazanediyl)bis(methylene))bis(1H-1,2,3-triazole-4,1-diyl))bis(ethane-2,1-diyl))bis(oxy))bis(ethane-2,1-diyl))bis(oxy))bis(ethane-2,1-diyl))bis(oxy))bis(4,1-phenylene))bis(4-oxo-4H-chromene-3,2-diyl))bis(oxy))bis(methylene))dibenzoate] | – | >50000.0 | – | – | –
> 100000 nM | 123 ± 13 nM | – | – | – | O=c1cc(-c2ccccc2)oc2cc(OCCN(Cc3ccccc3)Cc3cn(CCOCCOc4ccc(-c5cc(=O)c6cc(F)ccc6o5)cc4)nn3)ccc12 [Ac16Az7, 7-(2-(Benzyl((1-(2-(2-(4-(6-fluoro-4-oxo-4H-chromen-2-yl)phenoxy)ethoxy)ethyl)-1H-1,2,3-triazol-4-yl)methyl)amino)ethoxy)-2-phenyl-4H-chromen-4-one] | – | – | – | – | –
> 100000 nM | 590 nM | – | – | – | O=c1cc(-c2ccccc2)oc2cc(OCCN(Cc3ccccc3)Cc3cn(CCOc4ccc5c(=O)cc(-c6ccccc6)oc5c4)nn3)ccc12 [Ac16Az13, 7-(2-(Benzyl((1-(2-((4-oxo-2-phenyl-4H-chromen-7-yl)oxy)ethyl)-1H-1,2,3-triazol-4-yl)methyl)amino)ethoxy)-2-phenyl-4H-chromen-4-one] | >169.5 | – | – | – | –
20600 nM | – | mono-BCRP selectivity | ≤ 10 nM | – | COC(=O)c1cccc(COc2c(-c3ccc(OCCOCCOCCN=[N+]=[N-])cc3)oc3ccccc3c2=O)c1 [Az9, Methyl 3-(((2-(4-(2-(2-(2-azidoethoxy)ethoxy)ethoxy)phenyl)-4-oxo-4H-chromen-3-yl)oxy)methyl)benzoate] | – | 2019.6 | – | – | –

Structure (SMILES) | IC50 at 5 days (in vitro) | EC50 (MRP1 [1]) | Selectivity for ABC transporters (P-gp, MRP1, BCRP) [2] | EC50 (BCRP [7]) | % of reversion of sensitivity of 2008/MRP1 towards DOX (MRP1 [3]; triazole dimers at 1.0 μM) | DOX resistance of 2008/MRP1 Therapeutic index (MRP1 [3]) | Topotecan resistance of MCF7-MX100 Therapeutic index (BCRP [4]) | EC50 (MRP1 [5]) | Vincristine resistance of 2008/MRP1 Therapeutic index (MRP1 [6]) | % of reversion of sensitivity of MCF7-MX100 towards topotecan (BCRP [4]; triazole dimers at 1.0 μM)
Cc1ccc2oc(-c3ccc(OCCCCc4cn(CCOCCOc5ccc(-c6cc(=O)c7ccccc7o6)cc5)nn4)cc3)cc(=O)c2c1 [Ac5Az1, 6-Methyl-2-(4-(4-(1-(2-(2-(4-(4-oxo-4H-chromen-2-yl)phenoxy)ethoxy)ethyl)-1H-1,2,3-triazol-4-yl)butoxy)phenyl)-4H-chromen-4-one] | > 57000 nM | 250 nM | – | – | – | – | – | – | – | –
O=c1cc(-c2ccc(OCCOCCn3cc(CCCCOc4ccc5c(=O)cc(-c6ccccc6)oc5c4)nn3)cc2)oc2ccccc12 [Ac12Az1, 7-(4-(1-(2-(2-(4-(4-Oxo-4H-chromen-2-yl)phenoxy)ethoxy)ethyl)-1H-1,2,3-triazol-4-yl)butoxy)-2-phenyl-4H-chromen-4-one] | > 100000 nM | – | MRP1- and BCRP-dual selectivity | – | – | – | – | 84 ± 11 nM | >1190.5 | –
O=c1cc(-c2ccc(OCCOCCOCCn3cc(CCCCOc4ccc5c(=O)cc(-c6ccccc6)oc5c4)nn3)cc2)oc2ccccc12 [Ac12Az2, 7-(4-(1-(2-(2-(2-(4-(4-Oxo-4H-chromen-2-yl)phenoxy)ethoxy)ethoxy)ethyl)-1H-1,2,3-triazol-4-yl)butoxy)-2-phenyl-4H-chromen-4-one] | > 50000 nM | – | MRP1- and BCRP-dual selectivity | – | – | >298.5 | – | – | >377.9 | –
